Test results: patent US10689367B2, “Triazole pyridyl compounds as agonists of the APJ receptor” (AMGEN INC., priority 2016, dated 2020)

What follows are compounds tested against human APJ receptor (Homo sapiens (Human), UniProt P35414) (assay: [35S]GTPγS binding assay on membranes from CHO cells stably expressing human APJ receptor). Details: membranes of CHO cells stably expressing human APJ receptor, read-out: Activity hAPJ SPA EC50 IP.
Format: biochemical
In short: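 [35S]GTPγS binding measured on membranes from CHO cells stably expressing FLAG-tagged human APJ, with GDP, MgCl2 and NaCl levels optimized beforehand. Incubation 90 min at RT, imager read-out; EC50 from non-linear regression, averaged over several independent experiments.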

human APJ receptor, sequence (P35414 whole entry): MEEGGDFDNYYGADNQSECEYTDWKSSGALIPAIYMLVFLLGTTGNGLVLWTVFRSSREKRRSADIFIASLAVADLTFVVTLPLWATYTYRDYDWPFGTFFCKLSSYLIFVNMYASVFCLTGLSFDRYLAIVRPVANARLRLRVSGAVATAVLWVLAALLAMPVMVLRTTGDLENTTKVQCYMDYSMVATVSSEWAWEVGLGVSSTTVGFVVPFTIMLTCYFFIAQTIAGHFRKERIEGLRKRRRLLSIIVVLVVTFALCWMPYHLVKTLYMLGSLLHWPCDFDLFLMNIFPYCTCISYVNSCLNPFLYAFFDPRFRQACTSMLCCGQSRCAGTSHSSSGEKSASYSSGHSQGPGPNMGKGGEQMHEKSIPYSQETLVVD

Compound	EC50 [nM]
COCC(COC)n1c(NS(=O)(=O)[C@@H](C)[C@@H](OC(C)C)c2ncc(Cl)cn2)nnc1-c1cncc(C)c1 [Example 13.0, (1S,2S)-1-(5-chloro-2-pyrimidinyl)-N-(4-(1,3-dimethoxy-2-propanyl)-5-(5-methyl-3-pyridinyl)-4H-1,2,4-triazol-3-yl)-1-(2-propanyloxy)-2-propanesulfonamide]	80
COc1cccc(-c2nnc(NS(=O)(=O)[C@@H](C)[C@@H](OC(C)C)c3ncc(Cl)cn3)n2C(C)C)n1 [Example 177.0, (1S,2S)-1-(5-chloro-2-pyrimidinyl)-N-(5-(6-methoxy-2-pyridinyl)-4-(2-propanyl)-4H-1,2,4-triazol-3-yl)-1-(2-propanyloxy)-2-propanesulfonamide]	8.9
COc1cccc(-c2nnc(NS(=O)(=O)[C@@H](C)[C@@H](OC(C)C)c3ncc(C)cn3)n2Cc2ccon2)n1 [Example 261.0, (1S,2S)-1-isopropoxy-N-(4-(isoxazol-3-ylmethyl)-5-(6-methoxypyridin-2-yl)-4H-1,2,4-triazol-3-yl)-1-(5-methylpyrimidin-2-yl)propane-2-sulfonamide]	5.2
COc1cccc(-c2nnc(NS(=O)(=O)[C@@H](C)[C@H](C)c3ncc(Cl)cn3)n2[C@@H](C)c2ncc(C)o2)n1 (single isomer, unassigned) [Example 258.0, (2S,3R)-3-(5-chloro-2-pyrimidinyl)-N-(5-(6-methoxy-2-pyridinyl)-4-((1S)-1-(5-methyl-1,3-oxazol-2-yl)ethyl)-4H-1,2,4-triazol-3-yl)-2-butanesulfonamide or (2S,3R)-3-(5-chloro-2-pyrimidinyl)-N-(5-(6-methoxy-2-pyridinyl)-4-((1R)-1-(5-methyl-1,3-oxazol-2-yl)ethyl)-4H-1,2,4-triazol-3-yl)-2-butanesulfonamide]	0.88
COCC(COC)n1c(NS(=O)(=O)[C@@H](C)[C@@H](OC(C)C)c2cnc(C)cn2)nnc1-c1cccc(OC)n1 [Example 105.0]	2.8
CCc1noc(C)c1Cn1c(NS(=O)(=O)[C@@H](C)[C@@H](OC(C)C)c2ncc(C)cn2)nnc1-c1cccc(OC)n1 [Example 194.0, (1S,2S)-N-(4-((3-ethyl-5-methyl-1,2-oxazol-4-yl)methyl)-5-(6-methoxy-2-pyridinyl)-4H-1,2,4-triazol-3-yl)-1-(5-methyl-2-pyrimidinyl)-1-(2-propanyloxy)-2-propanesulfonamide]	56
COc1cccc(-c2nnc(NS(=O)(=O)[C@@H](C)[C@H](OC)c3ncc(Cl)cn3)n2C2(CF)CC2)n1 [Example 106.0]	0.38
COCCn1c(NS(=O)(=O)[C@@H](C)[C@@H](OC(C)C)c2ncc(Cl)cn2)nnc1-c1cncc(C)c1 [Example 12.0, (1S,2S)-1-(5-chloro-2-pyrimidinyl)-N-(4-(2-methoxyethyl)-5-(5-methyl-3-pyridinyl)-4H-1,2,4-triazol-3-yl)-1-(2-propanyloxy)-2-propanesulfonamiide]	120
COc1cccc(-c2nnc(NS(=O)(=O)[C@@H](C)[C@H](OC)c3ncc(Cl)cn3)n2[C@@H](C)c2noc(C)n2)n1 (single isomer, unassigned) [Example 244.0, (1R,2S)-1-(5-chloro-2-pyrimidinyl)-1-methoxy-N-(5-(6-methoxy-2-pyridinyl)-4-((1R)-1-(5-methyl-1,2,4-oxadiazol-3-yl)ethyl)-4H-1,2,4-triazol-3-yl)-2-propanesulfonamide or (1R,2S)-1-(5-chloro-2-pyrimidinyl)-1-methoxy-N-(5-(6-methoxy-2-pyridinyl)-4-((1S)-1-(5-methyl-1,2,4-oxadiazol-3-yl)ethyl)-4H-1,2,4-triazol-3-yl)-2-propanesulfonamide]	8.2
COc1cccc(-c2nnc(NS(=O)(=O)[C@@H](C)[C@H](OC)c3ncc(Cl)cn3)n2[C@H]2C[C@@H](OC)C2)n1 [Example 180.0, (1R,2S)-1-(5-chloro-2-pyrimidinyl)-1-methoxy-N-(4-(cis-3-methoxycyclobutyl)-5-(6-methoxy-2-pyridinyl)-4H-1,2,4-triazol-3-yl)-2-propanesulfonamide]	74
CC[C@H](c1cc(F)cc(F)c1)n1c(NS(=O)(=O)[C@@H](C)[C@H](OC)c2ncc(Cl)cn2)nnc1-c1cccc(OC)n1 (single isomer, unassigned) [Example 343.0, (1R,2S)-1-(5-chloropyrimidin-2-yl)-N-(4-((R)-1-(3,5-difluorophenyl)propyl)-5-(6-methoxypyridin-2-yl)-4H-1,2,4-triazol-3-yl)-1-methoxypropane-2-sulfonamide or (1R,2S)-1-(5-chloropyrimidin-2-yl)-N-(4-((S)-1-(3,5-difluorophenyl)propyl)-5-(6-methoxypyridin-2-yl)-4H-1,2,4-triazol-3-yl)-1-methoxypropane-2-sulfonamide]	0.1
(1R,2S)-1-(5-chloropyrimidin-2-yl)-1-methoxy-N-(5-(6-methoxypyridin-2-yl)-4-(((S)-oxetan-2-yl)methyl)-4H-1,2,4-triazol-3-yl)propane-2-sulfonamide or (1R,2S)-1-(5-chloropyrimidin-2-yl)-1-methoxy-N-(5-(6-methoxypyridin-2-yl)-4-(((R)-oxetan-2-yl)methyl)-4H-1,2,4-triazol-3-yl)propane-2-sulfonamide [Example 141.0]	16
CO[C@H](c1ncc(Cl)cn1)[C@H](C)S(=O)(=O)Nc1nnc(-c2cccnc2)n1C(C1CC1)C1CC1 [Example 112.0]	3.3
COCC(COC)n1c(NS(=O)(=O)[C@@H](C)[C@H](OC)c2ncc(Cl)cn2)nnc1-c1cccnc1 [Example 16.0]	44
COc1cccc(-c2nnc(NS(=O)(=O)[C@@H](C)[C@H](OC)c3ncc(Cl)cn3)n2CCS(C)(=O)=O)n1 [Example 57.0, (1R,2S)-1-(5-Chloro-2-pyrimidinyl)-1-methoxy-N-(5-(6-methoxy-2-pyridinyl)-4-(2-(methylsulfonyl)ethyl)-4H-1,2,4-triazol-3-yl)-2-propanesulfonamide]	211
CO[C@H](c1ncc(Cl)cn1)[C@H](C)S(=O)(=O)Nc1nnc(-c2ccccn2)n1C(C1CC1)C1CC1 [Example 46.0]	0.33
COCC(COC)n1c(NS(=O)(=O)[C@@H](C)[C@H](OC)c2cnc(C)cn2)nnc1-c1cccc(OC)n1 [Example 103.0]	15
CC[C@@H](c1c(C)noc1C)n1c(NS(=O)(=O)[C@@H](C)[C@@H](OC(C)C)c2ncc(C)cn2)nnc1-c1cccc(OC)n1 (single isomer, unassigned) [Example 220.0, (1S,2S)-N-(4-((1S)-1-(3,5-dimethyl-1,2-oxazol-4-yl)propyl)-5-(6-methoxy-2-pyridinyl)-4H-1,2,4-triazol-3-yl)-1-(5-methyl-2-pyrimidinyl)-1-(2-propanyloxy)-2-propanesulfonamide or (1S,2S)-N-(4-((1R)-1-(3,5-dimethyl-1,2-oxazol-4-yl)propyl)-5-(6-methoxy-2-pyridinyl)-4H-1,2,4-triazol-3-yl)-1-(5-methyl-2-pyrimidinyl)-1-(2-propanyloxy)-2-propanesulfonamide]	55
COc1cc(Cn2c(NS(=O)(=O)[C@@H](C)[C@H](OC)c3cnc(C)cn3)nnc2-c2cccc(OC)n2)on1 [Example 199.0, (1R,2S)-1-methoxy-N-(4-((3-methoxy-1,2-oxazol-5-yl)methyl)-5-(6-methoxy-2-pyridinyl)-4H-1,2,4-triazol-3-yl)-1-(5-methyl-2-pyrazinyl)-2-propanesulfonamide]	220
